{
  "source": "patent US20230382951A1",
  "about": "“BRAIN PENETRATING PEPTIDES” (BOARD OF REGENTS, THE UNIVERSITY OF TEXAS SYSTEM, priority 2020, published 2023)",
  "test_system": "hCMEC/D3 cells",
  "conditions": "third round of biopanning",
  "protocol": "CX7C-presenting M13 phage biopanning against hCMEC/D3 cells. A M13 phage CX7C library was used to pan against established BBB model hCMEC/D3 in vitro to identify potential brain-penetrating peptides. hCMEC/D3 cells (CELLutions Biosystems Inc.) were cultured in EndoGRO medium (Millipore, #SCME004) on Collagen I (Fisher Scientific, #44310001) coated Culture Ware (150 μg/ml, coated for at least 1 h at 37° C.)^110. […] To establish the cell monolayer on the transwell plate setup, hCMEC/D3 cells (passage 27-30) were seeded on a pre-coated collagen I (100 μg/ml for 3 h) coated 12-well transwell plate (Corning, #3401) at a density of 1.5-2.0*10^5 cells/cm^2 for 12-15 days^49. Transepithelial electrical resistance measurements and permeability assay with small tracer molecule sodium fluorescein were used to monitor the tightness of hCMEC/D3 monolayer. Prior to biopanning, hCMEC/D3 cells were incubated in fetal bovine serum depleted medium for 1 h at 37° C., and then 10^11 plaque forming units (pfu) of M13 phage CX7C library (NEB, #E8120S) was added to the donor compartment of the transwell and incubated for 1 h at 37° C. […]\nThe NGS data from two replicates of MiSeq run were analyzed on Stampede, a supercomputer run on Texas Advanced Computing Center at UT-Austin. First, to confirm the sequence quality and trim the low-quality sequence reads, fastqc and fastx_toolkit were used on the dataset. […]",
  "data": [
    {"substance": "NAGHLSQ [Pep-1]", "values": [
      {"measurement": "frequency relative to second most frequent peptide Pep-2", "result": "approximately five-fold higher"}
    ]}
  ]
}
